From patent publication US6034067A, “Serine protease inhibitors” (Akzo Nobel, N.V., priority 1996, dated 2000)

Target: T1, Human thrombin (Homo sapiens, UniProt P00734)
T1 construct: purchased Centraal Laboratorium voor Bloedtransfusie, Amsterdam, The Netherlands
Test: Anti-thrombin assay (hydrolysis of chromogenic substrate S-2238 by thrombin)
Type: biochemical
Conditions: final concentration causing 50% inhibition of the maximum absorbance of the blank; S-2238 substrate, TNP buffer pH 7.4, 37° C., absorbance at 405 nm
Procedure: Thrombin (Factor IIa) is a factor in the coagulation cascade.
At room temperature 0.075 ml and 0.025 ml test compound or reference compound solutions or vehicle are alternately pipetted into the wells of a microtiter plate and these solutions are diluted with 0.115 ml and 0.0165 ml TNP buffer, respectively. […] The plate is incubated (with shaking for 30 s) at 37° C.
All data are collected in an IBM personal computer using LOTUS-MEASURE.

| IC50 | Structure (SMILES) |
| --- | --- |
| 2.59 µM | CCS(=O)(=O)N[C@H](CC1CCCCC1)C(=O)N1CCC[C@H]1C(=O)NC(CCC(=O)NC(=N)N)C(=O)c1nccs1 (stereo partly drawn) [Example 4, EtSO2 -D-Cha-Pro-Glu(guanidine)-(2-thiazolyl)] |
| 0.034 µM | N=C(N)NC(=O)CCC(NC(=O)[C@@H]1CCCN1C(=O)[C@@H](CC1CCCCC1)NCC(=O)O)C(=O)c1nccs1 (stereo partly drawn) [Example 2, HOOC-CH2 -D-Cha-Pro-Glu(guanadine)-(2-thiazolyl)] |

| Structure (SMILES) | IC50 |
| --- | --- |
| CN[C@H](CC1CCCCC1)C(=O)N1CCC[C@H]1C(=O)NC(CCC(=O)NC(=N)N)C(=O)c1nccs1 (stereo partly drawn) [Example 6, N-Me-D-Cha-Pro-Glu(guanidine)-(2-thiazolyl)] | 0.32 µM |
